# Experimental data reported in ChEMBL document CHEMBL3872242, “Anti-inflammatory tetraquinane diterpenoids from a Crinipellis species” (Bioorg Med Chem, 2017).
# Calls of active or inactive are those of the source. The calls are words filed in the database; no cut-off is given here.
# What was measured:
# MONO-MAC-6 [1] = test: Inhibition of CXCL11 mRNA expression in LPS/INF-gamma stimulated human MONO-MAC-6 cells at 16.54 uM preincubated for 1 hr followed by LPS/INF-gamma stimulation measured after 16 hrs; type: functional, cell-based
# [2] = Cytotoxicity against human MONO-MAC-6 cells up to 50 uM measured after 24 hrs by XTT assay; type: toxicity, cell-based; details: mono-mac-6, 24 h
# [3] = Inhibition of IRF (unknown origin) expressed in LPS/INF-gamma-stimulated human MONO-MAC-6 cells assessed as reduction in ISRE dependent transcription activity measured after 4 hrs by luciferase reporter gene assay; type: cell-based; details: MONO-MAC-6, 4 h
# [4] = Effect on GAPDH mRNA expression in human MONO-MAC-6 cells at 3.31 to 16.54 uM preincubated for 1 hr followed by LPS/INF-gamma stimulation measured after 4 hrs by quantitative RT-PCR analysis; type: ADME, cell-based; details: mono-mac-6, 4 h
# MONO-MAC-6 [5] = test: Inhibition of IL-6 mRNA expression in LPS/INF-gamma stimulated human MONO-MAC-6 cells at 16.54 uM preincubated for 1 hr followed by LPS/INF-gamma stimulation measured after 16 hrs; type: functional, cell-based
# MONO-MAC-6 [6] = test: Inhibition of TNF-alpha mRNA expression in LPS/INF-gamma stimulated human MONO-MAC-6 cells at 16.54 uM preincubated for 1 hr followed by LPS/INF-gamma stimulation measured after 16 hrs; type: functional, cell-based
# [7] = Down regulation of CCL2 mRNA expression in LPS/INF-gamma stimulated human MONO-MAC-6 cells at 16.54 uM preincubated for 1 hr followed by LPS/INF-gamma stimulation measured after 4 hrs by quantitative RT-PCR analysis; type: functional, cell-based
# MONO-MAC-6 [8] = test: Inhibition of human THP1 cells derived IL-8 promoter dependent transcription activity expressed in LPS/INF-gamma stimulated human MONO-MAC-6 cells measured after 4 hrs by luciferase reporter gene assay; type: functional, cell-based; details: MONO-MAC-6, 4 h
# [9] = Downregulation of CXCL10 mRNA expression in human MONO-MAC-6 cells at 16.54 uM preincubated for 1 hr followed by LPS/INF-gamma stimulation measured after 4 hrs by quantitative RT-PCR analysis; type: functional, cell-based
# [10] = Down regulation of TNF-alpha mRNA expression in LPS/INF-gamma stimulated human MONO-MAC-6 cells at 16.54 uM preincubated for 1 hr followed by LPS/INF-gamma stimulation measured after 4 hrs by quantitative RT-PCR analysis; type: functional, cell-based
# [11] = Inhibition of NF-kappaB (unknown origin) expressed in LPS/INF-gamma-stimulated human MONO-MAC-6 cells measured after 4 hrs by luciferase reporter gene assay; type: cell-based; details: MONO-MAC-6, 4 h
# MONO-MAC-6 [12] = test: Inhibition of IL-23 mRNA expression in LPS/INF-gamma stimulated human MONO-MAC-6 cells at 16.54 uM preincubated for 1 hr followed by LPS/INF-gamma stimulation measured after 16 hrs; type: functional, cell-based
# MONO-MAC-6 [13] = test: Inhibition of CXCL1 mRNA expression in LPS/INF-gamma stimulated human MONO-MAC-6 cells at 16.54 uM preincubated for 1 hr followed by LPS/INF-gamma stimulation measured after 16 hrs; type: functional, cell-based
# MONO-MAC-6 [14] = test: Inhibition of LPS/INF-gamma induced CXCL10 promoter dependent transcription activity in human MONO-MAC-6 cells measured after 4 hrs by luciferase reporter gene assay; type: functional
# MONO-MAC-6 [15] = test: Inhibition of CXCL10 mRNA expression in LPS/INF-gamma stimulated human MONO-MAC-6 cells at 16.54 uM preincubated for 1 hr followed by LPS/INF-gamma stimulation measured after 16 hrs; type: functional, cell-based
# [16] = Down regulation of IL-6 mRNA expression in LPS/INF-gamma stimulated human MONO-MAC-6 cells at 16.54 uM preincubated for 1 hr followed by LPS/INF-gamma stimulation measured after 4 hrs by quantitative RT-PCR analysis; type: functional, cell-based
# MONO-MAC-6 [17] = test: Inhibition of CCL1 mRNA expression in LPS/INF-gamma stimulated human MONO-MAC-6 cells at 16.54 uM preincubated for 1 hr followed by LPS/INF-gamma stimulation measured after 16 hrs; type: functional, cell-based
# MONO-MAC-6 [18] = test: Inhibition of CCL3 mRNA expression in LPS/INF-gamma stimulated human MONO-MAC-6 cells at 16.54 uM preincubated for 1 hr followed by LPS/INF-gamma stimulation measured after 16 hrs; type: functional, cell-based
# MONO-MAC-6 [19] = test: Inhibition of IL-8 mRNA expression in LPS/INF-gamma stimulated human MONO-MAC-6 cells at 16.54 uM preincubated for 1 hr followed by LPS/INF-gamma stimulation measured after 16 hrs; type: functional, cell-based
# [20] = Down regulation of IL-8 mRNA expression in LPS/INF-gamma stimulated human MONO-MAC-6 cells at 16.54 uM preincubated for 1 hr followed by LPS/INF-gamma stimulation measured after 4 hrs by quantitative RT-PCR analysis; type: functional, cell-based
# [21] = Effect on constitutive activity of EF-1alpha expressed in human MONO-MAC-6 cells up to 50 uM measured after 4 hrs by luciferase reporter gene assay; type: ADME, cell-based; details: mono-mac-6, 4 h
# [22] = Down regulation of COX-2 mRNA expression in LPS/INF-gamma stimulated human MONO-MAC-6 cells at 16.54 uM preincubated for 1 hr followed by LPS/INF-gamma stimulation measured after 4 hrs by quantitative RT-PCR analysis; type: functional, cell-based
smiles,measurement,setting,value
C=C[C@H]1CC[C@]23C[C@@H]4[C@H](C)C(=O)[C@H]5O[C@]54[C@@]2(C)C[C@H](O)[C@]13C,inhibition,MONO-MAC-6 [1],Active
same,Activity,[2],Non-Toxic
same,IC50,[3],1000 to 1200 nM
same,Activity,[4],Non-Toxic
same,inhibition,MONO-MAC-6 [5],Active
same,inhibition,MONO-MAC-6 [6],Active
same,Activity,[7],Active
same,IC50,MONO-MAC-6 [8],1300 to 1500 nM
same,Activity,[9],Active
same,Activity,[10],Active
same,IC50,[11],2700 to 3000 nM
same,inhibition,MONO-MAC-6 [12],Active
same,inhibition,MONO-MAC-6 [13],Active
same,inhibition,MONO-MAC-6 [14],Dose-dependent effect
same,inhibition,MONO-MAC-6 [15],Active
same,Activity,[16],Active
same,inhibition,MONO-MAC-6 [17],Active
same,inhibition,MONO-MAC-6 [18],Active
same,inhibition,MONO-MAC-6 [19],Active
same,Activity,[20],Active
same,Activity,[21],Non-Toxic
same,Activity,[22],Active
